According to article PMC9308754 (Chembiochem, 2022):
“And” between values parts separate entries of the source, which are not always exact repeats. Equal entries are not always repeated. Where two headings read alike, the source gives them in different places.

Legend:
hHDAC1 = hHDAC1 (Homo sapiens, UniProt Q13547); type: biochemical
hHDAC6 = target: T1, hHDAC6 (Homo sapiens, UniProt Q9UBN7); assay: hHDAC6 activity assay; type: biochemical
T1 sequence (Q9UBN7 1-1215): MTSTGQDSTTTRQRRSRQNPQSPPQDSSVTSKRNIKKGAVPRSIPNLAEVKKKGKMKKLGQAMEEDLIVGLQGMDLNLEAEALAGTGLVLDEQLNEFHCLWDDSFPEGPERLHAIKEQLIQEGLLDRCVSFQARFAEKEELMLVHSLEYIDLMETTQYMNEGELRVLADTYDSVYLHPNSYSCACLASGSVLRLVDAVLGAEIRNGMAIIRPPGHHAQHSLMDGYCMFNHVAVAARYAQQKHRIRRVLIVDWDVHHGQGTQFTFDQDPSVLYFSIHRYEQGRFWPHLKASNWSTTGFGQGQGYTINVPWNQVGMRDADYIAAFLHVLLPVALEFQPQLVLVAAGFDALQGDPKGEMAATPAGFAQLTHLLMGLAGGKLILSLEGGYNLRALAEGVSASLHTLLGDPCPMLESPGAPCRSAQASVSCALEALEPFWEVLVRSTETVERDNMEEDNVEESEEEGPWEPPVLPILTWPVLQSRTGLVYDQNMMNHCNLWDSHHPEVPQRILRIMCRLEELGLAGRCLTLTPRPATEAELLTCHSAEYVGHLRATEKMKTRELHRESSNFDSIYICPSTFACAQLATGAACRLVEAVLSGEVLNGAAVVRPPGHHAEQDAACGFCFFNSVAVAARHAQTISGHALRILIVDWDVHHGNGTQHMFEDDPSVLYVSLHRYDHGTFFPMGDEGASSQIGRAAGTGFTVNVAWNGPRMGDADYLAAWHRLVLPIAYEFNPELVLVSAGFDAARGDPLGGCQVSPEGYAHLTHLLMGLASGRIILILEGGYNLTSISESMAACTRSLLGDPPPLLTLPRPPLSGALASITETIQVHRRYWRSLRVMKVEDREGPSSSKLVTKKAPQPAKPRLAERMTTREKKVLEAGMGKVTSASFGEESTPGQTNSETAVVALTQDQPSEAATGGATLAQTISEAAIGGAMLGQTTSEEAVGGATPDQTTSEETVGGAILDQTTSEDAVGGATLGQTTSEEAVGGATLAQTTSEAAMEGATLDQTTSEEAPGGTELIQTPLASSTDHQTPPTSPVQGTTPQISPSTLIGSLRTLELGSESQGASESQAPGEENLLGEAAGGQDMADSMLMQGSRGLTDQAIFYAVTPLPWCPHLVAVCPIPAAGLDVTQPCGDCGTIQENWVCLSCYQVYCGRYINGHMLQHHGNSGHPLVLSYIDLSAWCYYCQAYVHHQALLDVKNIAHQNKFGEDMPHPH

hHDAC8 = target: T2, hHDAC8 (Homo sapiens, UniProt Q9BY41); assay: biochemical
T2 sequence (Q9BY41 1-377): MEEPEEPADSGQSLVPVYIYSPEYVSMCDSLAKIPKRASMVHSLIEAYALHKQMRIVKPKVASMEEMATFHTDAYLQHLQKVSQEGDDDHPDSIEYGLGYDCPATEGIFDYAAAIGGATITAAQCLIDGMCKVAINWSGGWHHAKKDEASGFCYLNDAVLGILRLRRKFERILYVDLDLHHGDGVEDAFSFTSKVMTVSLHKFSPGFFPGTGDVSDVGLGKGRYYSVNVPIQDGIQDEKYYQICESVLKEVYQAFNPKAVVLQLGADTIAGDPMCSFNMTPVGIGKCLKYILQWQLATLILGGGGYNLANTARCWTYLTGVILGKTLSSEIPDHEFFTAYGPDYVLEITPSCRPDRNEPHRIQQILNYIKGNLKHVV

HDAC10 [1] = target: T3, HDAC10 (Homo sapiens, UniProt Q969S8); assay: BRET assay for HDAC10; type: cell-based
T3 sequence (Q969S8 1-669): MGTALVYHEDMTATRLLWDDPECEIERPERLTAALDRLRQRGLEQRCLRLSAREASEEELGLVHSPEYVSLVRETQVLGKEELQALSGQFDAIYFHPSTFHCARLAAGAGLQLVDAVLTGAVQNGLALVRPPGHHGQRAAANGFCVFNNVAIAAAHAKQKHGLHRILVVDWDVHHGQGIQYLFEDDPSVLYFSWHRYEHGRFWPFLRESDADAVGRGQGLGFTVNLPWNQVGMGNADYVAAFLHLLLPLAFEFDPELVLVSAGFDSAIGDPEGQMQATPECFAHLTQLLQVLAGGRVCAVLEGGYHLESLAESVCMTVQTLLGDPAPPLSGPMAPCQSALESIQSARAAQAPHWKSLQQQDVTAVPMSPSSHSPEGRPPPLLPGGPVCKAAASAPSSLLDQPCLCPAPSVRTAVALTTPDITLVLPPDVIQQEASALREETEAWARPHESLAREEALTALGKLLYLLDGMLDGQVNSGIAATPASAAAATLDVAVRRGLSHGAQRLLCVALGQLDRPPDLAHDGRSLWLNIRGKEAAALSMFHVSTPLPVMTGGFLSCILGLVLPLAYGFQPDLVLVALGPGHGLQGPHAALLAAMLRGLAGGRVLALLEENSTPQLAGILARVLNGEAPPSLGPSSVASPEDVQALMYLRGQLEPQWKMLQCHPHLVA

acetyl Histone H3 = assay: Western blotting, acetylation of histone H3 in HL60 cells; type: cell-based; conditions: Western blot, 48 a/b at 10 μM
acetyl tubulin = assay: Western blotting, acetylated tubulin in HL60 cells; type: cell-based; conditions: Western blot, 48 a/b at 10 μM
HDAC10 [2] = target: T3, HDAC10; assay: HDAC10 binding assay
SK‐N‐BE(2)‐C cells [3] = assay: LysoTracker assay, flow cytometry; type: cell-based; conditions: for increase of LysoTracker signal normalized against DMSO control: concentration differs per compound (Table 8)
drHDAC10 [4] = target: T4, drHDAC10 (Danio rerio, UniProt F1QCV2); assay: Proof of substrate conversion by HPLC; type: biochemical, Danio rerio (zebrafish); conditions: drHDAC10 0.027 mg/mL, up to 45 min
T4 sequence (F1QCV2 2-675 limits assumed): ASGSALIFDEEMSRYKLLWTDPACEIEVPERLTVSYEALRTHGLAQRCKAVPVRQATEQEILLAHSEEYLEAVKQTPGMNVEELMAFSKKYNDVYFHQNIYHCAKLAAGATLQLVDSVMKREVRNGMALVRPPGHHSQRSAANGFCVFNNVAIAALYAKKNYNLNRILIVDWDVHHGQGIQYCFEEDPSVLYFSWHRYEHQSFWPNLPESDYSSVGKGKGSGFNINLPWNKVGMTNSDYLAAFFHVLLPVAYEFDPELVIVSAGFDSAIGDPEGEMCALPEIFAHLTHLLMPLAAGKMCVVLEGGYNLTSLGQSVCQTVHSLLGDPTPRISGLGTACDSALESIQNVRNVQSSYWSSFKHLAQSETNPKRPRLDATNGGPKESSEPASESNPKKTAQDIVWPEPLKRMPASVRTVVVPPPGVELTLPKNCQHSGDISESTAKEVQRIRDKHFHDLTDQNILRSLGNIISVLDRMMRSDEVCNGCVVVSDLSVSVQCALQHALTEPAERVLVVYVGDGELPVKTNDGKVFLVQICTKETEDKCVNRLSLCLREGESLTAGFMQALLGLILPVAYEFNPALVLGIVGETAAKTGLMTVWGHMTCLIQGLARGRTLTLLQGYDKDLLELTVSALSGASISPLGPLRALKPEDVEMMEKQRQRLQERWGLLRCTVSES

SK‐N‐BE(2)‐C cells [5] = assay: LysoTracker assay, fluorescence microscopy; type: cell-based; conditions: 24 h after treatment
drHDAC10 [6] = target: T4, drHDAC10; assay: NDA assay drHDAC10; conditions: for inhibition at 0.1 µM / inhibition at 1 µM: read-out: NDA assay drHDAC10 % inhibition
HDAC10 [7] = target: T3, HDAC10; conditions: read-out: BRET assay (EC50); in‐cellulo; ref 32 (Géraldy et al.); cited from earlier work
SK‐N‐BE(2)‐C cells [8] = conditions: 7.5 μM, flow cytometry; ref 16b; cited from earlier work
HDAC10 [9] = target: T3, HDAC10; conditions: TR‐FRET and BRET displacement assays; cited from earlier work
[10] = @ 1 (concentration unit not given)
[11] = @ 10 (concentration unit not given)

Sequence of hHDAC1 (Q13547 whole entry): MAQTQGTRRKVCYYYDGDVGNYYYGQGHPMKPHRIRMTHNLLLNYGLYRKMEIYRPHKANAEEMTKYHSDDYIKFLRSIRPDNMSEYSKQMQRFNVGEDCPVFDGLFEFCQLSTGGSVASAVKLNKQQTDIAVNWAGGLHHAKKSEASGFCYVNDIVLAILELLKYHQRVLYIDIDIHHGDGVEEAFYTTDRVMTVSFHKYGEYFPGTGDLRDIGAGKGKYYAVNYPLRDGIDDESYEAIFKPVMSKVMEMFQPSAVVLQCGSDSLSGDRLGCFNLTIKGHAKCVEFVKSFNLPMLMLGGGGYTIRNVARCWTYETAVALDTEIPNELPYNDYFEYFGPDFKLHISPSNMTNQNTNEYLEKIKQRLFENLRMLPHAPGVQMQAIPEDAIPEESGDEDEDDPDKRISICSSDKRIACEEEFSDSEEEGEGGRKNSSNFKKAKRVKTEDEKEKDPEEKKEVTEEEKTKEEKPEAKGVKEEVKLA

SMILES: O=C(NO)C1CCN(CCNCc2ccccc2)CC1 [48 a, 1‐(2‐(Benzylamino)ethyl)‐N‐hydroxypiperidine‐4‐carboxamide]
- hHDAC1 (ZMAL) % inhibition (hHDAC1; [10]): < 10%
- hHDAC1 (ZMAL) % inhibition (hHDAC1; [11]): 20%
- hHDAC6 (ZMAL) % inhibition (hHDAC6; [10]): <10 % @ 10 <10 % @ 1
- hHDAC6 (ZMAL) % inhibition (hHDAC6; [11]): <10 % @ 10 <10 % @ 1
- IC50 (hHDAC8; hHDAC8 (FDL) IC50): 1970 ± 309 nM
- IC50 (hHDAC8; inhibition of HDAC8): ~1000 nM
- EC50 (HDAC10 [1]): 26 nM
- effect on acetyl Histone H3 (class I, representative HDAC1) (acetyl Histone H3): no increase
- effect on acetyl tubulin (HDAC6) (acetyl tubulin): no increase
- IC50 (HDAC10 [2]): 5 nM

SMILES: O=C(NO)C1CCN(CCNCc2ccc(Br)cc2)CC1 [48 b, 1‐(2‐((4‐Bromobenzyl)amino)ethyl)‐N‐hydroxypiperidine‐4‐carboxamide]
- hHDAC1 (ZMAL) % inhibition (hHDAC1; [10]): < 10%
- hHDAC1 (ZMAL) % inhibition (hHDAC1; [11]): 11%
- hHDAC6 (ZMAL) % inhibition (hHDAC6; [10]): < 10%
- hHDAC6 (ZMAL) % inhibition (hHDAC6; [11]): 11%
- IC50 (hHDAC8; inhibition of HDAC8): ~1000 nM
- EC50 (HDAC10 [1]): 10 nM
- effect on acetyl Histone H3 (class I, representative HDAC1) (acetyl Histone H3): no increase
- effect on acetyl tubulin (HDAC6) (acetyl tubulin): no increase
- LysoTracker effect (relative signal intensity as compared to control) (SK‐N‐BE(2)‐C cells [3]; 10 μM): 1.07±0.15
- LysoTracker effect (relative signal intensity as compared to control) (SK‐N‐BE(2)‐C cells [3]; 20.0 μM): 1.04±0.05
- increase of LysoTracker signal normalized against DMSO control (SK‐N‐BE(2)‐C cells [3]): did not show an increase in signal
- IC50 (HDAC10 [2]): 2 nM

SMILES: CC(=O)NCCCCNCCC(=O)Nc1ccc2c(C)cc(=O)oc2c1 [Ac‐spermidine‐AMC, 3‐((4‐Acetamidobutyl)amino)‐N‐(4‐methyl‐2‐oxo‐2H‐chromen‐7‐yl)propanamide]
- maximal conversion by drHDAC10 (HPLC, fluorescamine derivatization) (drHDAC10 [4]): about 50%

SMILES: CN(C)Cc1c(C(=O)NCCOc2ccc(C(=O)NO)cc2)oc2ccccc12 [abexinostat]
- increase of LysoTracker signal normalized against DMSO control (SK‐N‐BE(2)‐C cells [3]): up to 3 fold
- accumulation of lysosomes, LysoTracker signal by fluorescence microscopy (SK‐N‐BE(2)‐C cells [5]): very strong response
- IC50 (drHDAC10 [6]): 134 ± 26 nM
- inhibition at 0.1 µM (drHDAC10 [6]): 45%
- inhibition at 1 µM (drHDAC10 [6]): > 95%

SMILES: CCCCOc1ccc(CC(=O)NO)cc1 [bufexamac]
- inhibition at 0.1 µM (drHDAC10 [6]): 26%
- inhibition at 1 µM (drHDAC10 [6]): 64%

SMILES: Nc1ccccc1NC(=O)c1ccc(CNc2nccc(-c3cccnc3)n2)cc1 [mocetinostat]
- inhibition at 0.1 µM (drHDAC10 [6]): < 10%
- inhibition at 1 µM (drHDAC10 [6]): < 10%

SMILES: Cc1[nH]c2ccccc2c1CCNCc1ccc(/C=C/C(=O)NO)cc1 [panobinostat]
- increase of LysoTracker signal normalized against DMSO control (SK‐N‐BE(2)‐C cells [3]): up to 3 fold
- accumulation of lysosomes, LysoTracker signal by fluorescence microscopy (SK‐N‐BE(2)‐C cells [5]): very strong response
- inhibition at 0.1 µM (drHDAC10 [6]): 65%
- inhibition at 1 µM (drHDAC10 [6]): > 95%

SMILES: Cn1cc(CNCC2CCN(c3ncc(C(=O)NO)cn3)CC2)c2ccccc21 [quisinostat]
- increase of LysoTracker signal normalized against DMSO control (SK‐N‐BE(2)‐C cells [3]): up to 3 fold
- accumulation of lysosomes, LysoTracker signal by fluorescence microscopy (SK‐N‐BE(2)‐C cells [5]): very strong response
- EC50 (HDAC10 [7]): 40 nM
- IC50 (drHDAC10 [6]): 50 nM
- inhibition at 0.1 µM (drHDAC10 [6]): 60%
- inhibition at 1 µM (drHDAC10 [6]): 91%

SMILES: O=C(CCCCCCC(=O)Nc1ccc([C@H]2O[C@@H](CSc3nc(-c4ccccc4)c(-c4ccccc4)o3)C[C@@H](c3ccc(CO)cc3)O2)cc1)NO [tubacin]
- accumulation of lysosomes, LysoTracker signal by fluorescence microscopy (SK‐N‐BE(2)‐C cells [5]): No influence
- LysoTracker effect (relative signal intensity as compared to control) (SK‐N‐BE(2)‐C cells [8]): 1.1 and 1.1±0.07

SMILES: CN1CCc2c(c3ccccc3n2Cc2ccc(C(=O)NO)cc2)C1 [tubastatin A]
- HDAC10 binding in displacement assays (HDAC10 [9]): bound strongly
- IC50 (drHDAC10 [6]): 30 ± 3 nM
- inhibition at 0.1 µM (drHDAC10 [6]): 82%
- inhibition at 1 µM (drHDAC10 [6]): > 95%

SMILES: O=C(CCCCCCC(=O)Nc1ccccc1)NO [vorinostat]
- effect on acetyl Histone H3 (class I, representative HDAC1) (acetyl Histone H3): robust hyperacetylation
- effect on acetyl tubulin (HDAC6) (acetyl tubulin): robust hyperacetylation
- IC50 (drHDAC10 [6]): 2000 ± 240 nM
- inhibition at 0.1 µM (drHDAC10 [6]): < 10%
- inhibition at 1 µM (drHDAC10 [6]): 43%
